Experimental data as given in patent US4159328A, “Tetrahydro-1,3,5-thiadiazin-4-one derivative” (Nihon Nohyaku Co., Ltd., priority 1977, dated 1979).

How the values were obtained:
[1] = test system: larvae of brown planthopper (Nilaparvata lugens Stahl); experiment: Test Example 1: insecticidal activity against larvae of brown planthopper; type: in vivo; conditions: 120 h, third-instar larvae, 25° C., 5 days after treatment
Experimental: Insecticidal activity against larvae of brown planthopper (Nilaparvata lugens Stahl).
Testing method: Five rice seedlings of the 1.5 leaf age were dipped in a test composition of 400 ppm concentration for 30 seconds. After air-drying, the seedlings were placed in a glass tube containing 1 ml of water and infested with five third-instar larvae of brown planthopper. The glass tube was left standing in a constant temperature cabinet at 25° C. and 5 or 7 days after the treatment, dead-and-survival was observed. Mortality was calculated from the results of 3-replication test.

[2] = test system: two-spotted spider mite (Tetranychus urticae Koch); experiment: Test Example 3: activity to two-spotted spider mite; type: in vivo; conditions: 120 h, 1,000 ppm, 5 days after treatment
Source text: Activity to two-spotted spider mite (Tetranychus urticae Koch).
Testing method: Two-spotted spider mites were set free on the pot-planted soybean in a greenhouse. On the next day, a test composition of 1,000 ppm concentration was sprayed over the soybean by means of a spray gun. Two days or five days after the treatment, dead-and-survival was inspected to calculate the mortality.

Row | Structure (SMILES) | mortality at 400 ppm [1] [%] | mortality at 1000 ppm [2] [%]
1 | CCN1C(=O)N(c2ccccc2C)CSC1=NC(C)(C)C [Compound 299] | 100 | 100
2 | Cc1cccc(N2CSC(=NC(C)C)N(C(C)C)C2=O)c1C [Compound 383] | 100 | 100
3 | CCC(C)N1C(=O)N(c2cc(Cl)ccc2Cl)CSC1=NC(C)(C)C (stereo not shown) [Compound 428] | 100 | 100
4 | CCc1ccccc1N1CSC(=NC)N(C)C1=O [Compound 335] | 80 | –
5 | CC(C)c1ccccc1N1CSC(=NC(C)(C)C)N(C(C)C)C1=O [Compound 343, 2-t-Butylimino-3-isopropyl-5-(o-isopropyl)-phenyl-tetrahydro-1,3,5-thiadiazin-4-one] | 100 | –
6 | Cc1ccccc1N1CSC(=NC(C)C)N(C)C1=O [Compound 297] | 100 | 100
7 | Cc1ccc(N2CSC(=NC(C)C)N(C(C)C)C2=O)c(C)c1 [Compound 378, 2-isopropylimino-3-isopropyl-5-(2,4-dimethylphenyl)-tetrahydro-1,3,5-thiadiazin-4-one] | 100 | 100
8 | CC(C)N=C1SCN(c2cccc(Cl)c2)C(=O)N1C(C)c1ccccc1 (stereo not shown) [Compound 237] | 100 | 100
9 | CCc1ccccc1N1CSC(=NC(C)(C)C)N(C(C)C)C1=O [Compound 338] | 100 | –
10 | CC(C)N1C(=O)N(c2cc(Cl)ccc2Cl)CSC1=NC(C)(C)C [Compound 427] | 100 | 100
11 | C=CCN=C1SCN(c2c(CC)cccc2CC)C(=O)N1CC=C [Compound 394] | 70 | 80
12 | CCOc1ccc(N2CSC(=NC(C)(C)C)N(C(C)C)C2=O)cc1 [Compound 367] | 80 | 100
13 | CC(C)N1C(=O)N(c2ccc(Cl)c(Cl)c2)CSC1=NC(C)(C)C [Compound 416, 2-t-Butylimino-3-isopropyl-5-(3,4-dichlorophenyl)-tetrahydro-1,3,5-thiadiazin-4-one] | 100 | 100
14 | CCC(C)N=C1SCN(c2ccccc2Cl)C(=O)N1CC(C)C (stereo not shown) [Compound 253] | 80 | –
15 | CCOCCN1C(=O)N(c2ccccc2)CSC1=NC(C)(C)C [Compound 182] | 70 | –
16 | CCCN1C(=O)N(c2ccc(OC)cc2)CSC1=NC1CCCCC1 [Compound 354] | 100 | 100
17 | C=CCN1C(=O)N(c2ccc(OC)cc2)CSC1=NC(C)C [Compound 350] | 100 | 100
18 | CC(C)N=C1SCN(c2cccc(Cl)c2Cl)C(=O)N1C(C)C [Compound 402] | 80 | 100
19 | CC(C)N=C1SCN(c2ccc(Br)cc2)C(=O)N1C(C)C [Compound 293, 2-Isopropylimino-3-isopropyl-5-(p-bromophenyl)-tetrahydro-1,3,5-thiadiazin-4-one] | 100 | 100
20 | CC(C)N1C(=O)N(c2cc(Cl)cc(Cl)c2)CSC1=NC(C)(C)C [Compound 407] | 100 | 100
21 | CC(C)N=C1SCN(c2ccccc2Cl)C(=O)N1Cc1ccco1 [Compound 255] | 100 | 100

Row | Structure (SMILES) | mortality at 400 ppm [1] [%] | mortality at 1000 ppm [2] [%]
22 | CCC(C)N1C(=O)N(c2ccc(Cl)cc2Cl)CSC1=NC(C)(C)C (stereo not shown) [Compound 401] | 100 | 70
23 | CC(C)(C)N=C1SCN(c2ccccc2)C(=O)N1Cc1ccccc1 [Compound 159] | 80 | –
24 | CCC(C)N1C(=O)N(c2ccc(Br)cc2)CSC1=NC(C)(C)C (stereo not shown) [Compound 295] | 100 | 100
25 | CCC(C)N1C(=O)N(c2ccc(C)cc2C)CSC1=NC(C)(C)C (stereo not shown) [Compound 380] | 100 | 100
26 | CCN=C1SCN(c2c(C)cccc2C)C(=O)N1CC [Compound 390] | 60 | 80
27 | CCN=C1SCN(c2ccc(OC(C)C)cc2)C(=O)N1CC [Compound 371] | 75 | 100
28 | CC(C)N1C(=O)N(c2ccc(Br)cc2)CSC1=NC(C)(C)C [Compound 294] | 100 | 100
29 | CCc1ccc(N2CSC(=NC(C)(C)C)N(C(C)CC)C2=O)cc1 (stereo not shown) [Compound 334] | 100 | –
30 | Cc1ccccc1N1CSC(=NC2CCCCC2)N(C(C)C)C1=O [Compound 305] | 95 | 70
31 | CCC(C)N=C1SCN(c2ccc(Cl)cc2Cl)C(=O)N1C(C)CC (stereo not shown) [Compound 400] | 100 | 70
32 | CCc1ccc(N2CSC(=NC(C)C)N(C(C)C)C2=O)cc1 [Compound 332] | 100 | –
33 | CCN=C1SCN(c2cccc(C(F)(F)F)c2)C(=O)N1CC [Compound 260] | 60 | 100
34 | CC(C)Oc1ccc(N2CSC(=NC(C)(C)C)N(C(C)C)C2=O)cc1 [Compound 373] | 80 | 100
35 | Cc1ccc(N2CSC(=NC(C)(C)C)N(C(C)C)C2=O)c(C)c1 [Compound 379, 2-t-butylimino-3-isopropyl-5-(2,4-dimethylphenyl)-tetrahydro-1,3,5-thiadiazin-4-one] | 100 | 100
36 | CC(C)N=C1NC(=O)N(c2ccc(F)cc2)CS1 [Compound 275] | 100 | –
37 | C=CCN=C1SCN(c2ccc(F)cc2)C(=O)N1C [Compound 289] | 100 | 100
38 | CC(C)N=C1SCN(c2ccc(OC(C)C)cc2)C(=O)N1C [Compound 370, 2-Isopropylimino-3-methyl-5-(p-isopropoxyphenyl)-tetrahydro-1,3,5-thiadiazin-4-one] | – | 100
39 | COc1ccccc1N1CSC(=NC(C)(C)C)N(C(C)C)C1=O [Compound 360] | 100 | –
40 | CC(C)N=C1SCN(c2cccc(Cl)c2)C(=O)N1C1CCCC1 [Compound 233] | 100 | 100
41 | C=CCN1C(=O)N(c2ccc(Cl)c(Cl)c2)CSC1=NC(C)C [Compound 421] | 60 | 70
42 | CC(C)N1C(=O)N(c2ccccc2Cl)CSC1=NC1CCCCC1 [Compound 252, 2-Cyclohexylimino-3-isopropyl-5-(o-chlorophenyl)-tetrahydro-1,3,5-thiadiazin-4-one] | 100 | –

Row | Structure (SMILES) | mortality at 400 ppm [1] [%] | mortality at 1000 ppm [2] [%]
43 | CC(C)N1C(=O)N(c2ccc(Cl)c(Cl)c2)CSC1=NC1CCCCC1 [Compound 425] | 60 | 100
44 | CCc1ccccc1N1CSC(=NC(C)(C)C)N(C(C)CC)C1=O (stereo not shown) [Compound 339, 2-t-butylimino-3-s-butyl-5-(o-ethylphenyl)-tetrahydro-1,3,5-thiadiazin-4-one] | 100 | –
45 | Cc1cc(Cl)ccc1N1CSC(=NC(C)(C)C)N(C(C)C)C1=O [Compound 387, 2-t-butylimino-3-isopropyl-5-(2-methyl-4-chlorophenyl)-tetrahydro-1,3,5-thiadiazin-4-one] | 100 | 100
46 | CC(C)N=C1SCN(c2ccc(OC(C)C)cc2)C(=O)N1C(C)C [Compound 372, 2-isopropylimino-3-isopropyl-5-(p-isopropoxyphenyl)-tetrahydro-1,3,5-thiadiazin-4-one] | 60 | 100
47 | CCc1ccccc1N1CSC(=NC(C)C)N(C(C)C)C1=O [Compound 337] | 100 | 100
48 | CCN1C(=O)N(c2cccc(C)c2C)CSC1=NC1CCCCC1 [Compound 382, 2-cyclohexylimino-3-ethyl-5-(2,3-dimethylphenyl)tetrahydro-1,3,5-thiadiazin-4-one] | 80 | 100
49 | C=CCN1C(=O)N(c2ccccc2CC)CSC1=NC(C)C [Compound 336] | 100 | 100
50 | CCCCCCN1C(=O)N(c2cccc(Cl)c2)CSC1=NC(C)C [Compound 234] | 100 | –
51 | COc1ccc(N2CSC(=NC(C)C)N(c3ccc(Cl)c(Cl)c3)C2=O)cc1 [Compound 359] | – | 100
52 | COCCN1C(=O)N(c2cccc(Cl)c2)CSC1=NC(C)(C)C [Compound 229] | 100 | –
53 | CC(C)N=C1SCN(c2ccccc2C(C)C)C(=O)N1C(C)C [Compound 342] | 100 | –
54 | CCN1C(=O)N(c2ccc(Cl)c(Cl)c2)CSC1=NCC(C)C [Compound 419] | – | 100
55 | CC(C)N=C1SCN(c2ccccc2)C(=O)N1c1ccc(F)cc1 [Compound 167] | 70 | –
56 | CCC(C)N1C(=O)N(c2ccccc2C(C)C)CSC1=NC(C)(C)C (stereo not shown) [Compound 344] | 100 | –
57 | CCN=C1SCN(c2ccccc2C)C(=O)N1CC [Compound 298] | – | 100
58 | C=CCN1C(=O)N(c2ccccc2Cl)CSC1=NC(C)(C)C [Compound 243] | 100 | –
59 | COCCN1C(=O)N(c2ccccc2)CSC1=NC(C)C [Compound 179] | 90 | –
60 | CC(C)(C)N=C1NC(=O)N(c2ccc(F)cc2)CS1 [Compound 276] | 100 | –
61 | CC(C)N=C1SCN(c2cc(Cl)cc(Cl)c2)C(=O)N1Cc1ccccc1 [Compound 408, 2-Isopropylimino-3-benzyl-5-(3,5-dichloro-phenyl)-tetrahydro-1,3,5-thiadiazin-4-one] | – | 100
